Experimental data reported in US9682976B2, “Protein kinase C inhibitors and uses thereof” (Rigel Pharmaceuticals, Inc., priority 2012, dated 2017).

Test system: PKC mediated IL-2 production
Test: IL-2 ELISA, human primary T cell, anti CD3+CD28+
Type: cell-based
Conditions: human primary T cells stimulated with αCD3 and αCD28, 24 hours
Method: Compounds 1-328 were tested in a whole cell functional assay for PKC mediated IL-2 production as follows. Human primary T cell isolation and culture: Human primary T cells were prepared as follows. Whole blood was obtained from a healthy volunteer, mixed 1:1 with PBS, layered on to Ficoll Hypaque (Amersham Pharmacia Biotech, Piscataway, N.J., Catalog #17-1440-03) in 2:1 blood/PBS:ficoll ratio and centrifuged for 30 minutes at 4° C. at 1750 rpm. The cells at the serum: ficoll interface were recovered and washed twice with 5 volumes of PBS. These freshly isolated human peripheral blood mononuclear cells were cultured in Yssel's medium containing 40 U/ml IL2 in a flask pre-coated with […] αCD3 and 5 μg/ml αCD28 (Anti-Human CD3, BD Pharmingen Catalog #555336, Anti-Human CD28, Beckman Coulter Catalog #IM1376). The cells were stimulated for 3-4 days, then transferred to a fresh flask and maintained in RPMI (RPMI-1640 with L-Glutamine; Mediatech, Inc., Herndon Va., cat. #10-040-CM) with 10% FBS and 40 U/ml IL-2. The primary T-cells were then washed twice with PBS to remove the IL-2.
Primary T cell stimulation and IL2 ELISA: Human primary T cells (100,000 cells per well) were pre-incubated with or without test compound in Yssel's medium for 1 hour at 37° C. Cells were then stimulated by transferring them to round-bottom 96-well plates pre-coated with […] αCD3 and 5 μg/ml αCD28. For counter assay, cells were instead stimulated by adding 8× stock solutions of PMA and ionomycin in Yssels (for final concentrations of 0.5 ng/ml PMA and 0.1 uM ionomycin, both from Calbiochem). Cells were incubated at 37° C. for 24 hours before 100 μL supernatants were harvested for quantification of IL-2 by ELISA using Human IL-2 Duoset ELISA Kit from R and D Systems, Cat. # DY202E.

| SMILES | EC50 (Homo sapiens, T-cell, 24 h) | EC50 |
| --- | --- | --- |
| Cn1nnn(-c2cc(Nc3ncc(F)c(N(CC(C)(C)O)[C@@H]4C[C@@H]5CCCN5C(C)(C)C4)n3)c(F)cc2OCC(C)(C)O)c1=O [Compound 139, 1-(5-(4-(((7R,8aS)-5,5-dimethyloctahydroindolizin-7-yl)(2-hydroxy-2-methylpropyl)amino)-5-fluoropyrimidin-2-ylamino)-4-fluoro-2-(2-hydroxy-2-methylpropoxy)phenyl)-4-methyl-1H-tetrazol-5(4H)-one] | > 10000 nM |  |
| CC(=O)O[C@H]1[C@H](OC(C)=O)C(Oc2cc(F)c(Nc3ncc(F)c(N[C@@H]4C[C@@H]5CCCN5C(C)(C)C4)n3)cc2-n2nnn(C)c2=O)OC[C@H]1OC(C)=O (stereo partly drawn) [Compound 191, (3S,4R,5R)-2-(4-((4-(((7R,8aS)-5,5-dimethyloctahydroindolizin-7-yl)amino)-5-fluoropyrimidin-2-yl)amino)-5-fluoro-2-(4-methyl-5-oxo-4,5-dihydro-1H-tetrazol-1-yl)phenoxy)tetrahydro-2H-pyran-3,4,5-triyl triacetate] | 1000 to 10000 nM |  |
| COCCOc1ccc(Nc2ncc(F)c(N[C@@H]3C[C@@H]4CCCN4C(C)(C)C3)n2)cc1-n1cnnn1 [Compound 202, N4-((7R,8aS)-5,5-dimethyloctahydroindolizin-7-yl)-5-fluoro-N2-(4-(2-methoxyethoxy)-3-(1H-tetrazol-1-yl)phenyl)pyrimidine-2,4-diamine] | < 100 nM |  |
| CC(O)c1cc(F)c(Nc2ncc(F)c(N[C@@H]3C[C@@H]4CCCN4C(C)(C)C3)n2)cc1-n1nnn(C)c1=O (some centres unmarked) [Compound 94] | 100 to 500 nM |  |
| Cn1nnn(-c2cc(Nc3ncc(F)c(N[C@@H]4C[C@@H]5CCCN5C(C)(C)C4)n3)c(F)cc2OC2COC2)c1=O [Compound 88, 1-(5-(4-((7R,8aS)-octahydro-5,5-dimethylindolizin-7-ylamino)-5-fluoropyrimidin-2-ylamino)-4-fluoro-2-(oxetan-3-yloxy)phenyl)-4-methyl-1H-tetrazol-5(4H)-one] | 100 to 500 nM |  |
| Cn1nnn(-c2cc(Nc3ncc(F)c(N[C@@H]4C[C@@H]5C[C@@H](F)CN5C(C)(C)C4)n3)c(F)cc2C2CC2)c1=O [Compound 64, 1-(5-(4-((2R,7R,8aR)-2-fluoro-octahydro-5,5-dimethylindolizin-7-ylamino)-5-fluoropyrimidin-2-ylamino)-2-cyclopropyl-4-fluorophenyl)-4-methyl-1H-tetrazol-5(4H)-one] | 100 to 500 nM |  |
| Cn1nnn(-c2cc(Nc3ncc(F)c(NC4CC5CCCN5C(C)(C)C4)n3)ccc2OC2COC2)c1=O (racemic) [Compound 38, 1-(5-(5-fluoro-4-(octahydro-5,5-dimethylindolizin-7-ylamino)pyrimidin-2-ylamino)-2-(oxetan-3-yloxy)phenyl)-4-methyl-1H-tetrazol-5(4H)-one] | 100 to 500 nM |  |
| CC1(C)C[C@H](Nc2nc(Nc3ccc(OCCO)c(-n4cnnn4)c3)ncc2F)C[C@@H]2CCCN21 [Compound 205, 2-(4-((4-(((7R,8aS)-5,5-dimethyloctahydroindolizin-7-yl)amino)-5-fluoropyrimidin-2-yl)amino)-2-(1H-tetrazol-1-yl)phenoxy)ethan-1-ol] | < 100 nM |  |
| Cn1nnn(-c2cc(Nc3ncc(F)c(N[C@H]4C[C@@H]5C[C@@H](F)CN5C(C)(C)C4)n3)c(F)cc2C2CC2)c1=O [Compound 65, 1-(5-(4-((2R,7S,8aR)-2-fluoro-octahydro-5,5-dimethylindolizin-7-ylamino)-5-fluoropyrimidin-2-ylamino)-2-cyclopropyl-4-fluorophenyl)-4-methyl-1H-tetrazol-5(4H)-one] | 1000 to 10000 nM |  |
| Cc1nnnn1-c1ccc(F)c(Nc2ncc(Cl)c(N[C@@H]3C[C@@H]4CCCN4C(C)(C)C3)n2)c1 [Compound 150, 5-chloro-N4-((7R,8aS)-5,5-dimethyloctahydroindolizin-7-yl)-N2-(2-fluoro-5-(5-methyl-1H-tetrazol-1-yl)phenyl)pyrimidine-2,4-diamine] | < 100 nM |  |
| COCCOCCOc1ccc(Nc2ncc(F)c(N[C@@H]3C[C@@H]4CCCN4C(C)(C)C3)n2)cc1-n1cnnn1 [Compound 207, N4-((7R,8aS)-5,5-dimethyloctahydroindolizin-7-yl)-5-fluoro-N2-(4-(2-(2-methoxyethoxy)ethoxy)-3-(1H-tetrazol-1-yl)phenyl)pyrimidine-2,4-diamine] | < 100 nM |  |
| Cn1nnn(-c2cc(Nc3ncc(F)c(N[C@@H]4C[C@@H]5CCCN5C(C)(C)C4)n3)ccc2OCCO)c1=O [Compound 132, 1-(5-((4-(((7R,8aS)-5,5-dimethyloctahydroindolizin-7-yl)amino)-5-fluoropyrimidin-2-yl)amino)-2-(2-hydroxyethoxy)phenyl)-4-methyl-1,4-dihydro-5H-tetrazol-5-one] | < 100 nM |  |
| COc1cc(Nc2ncc(F)c(N[C@H]3C[C@@H]4CCCN4C(C)(C)C3)n2)cc(-n2nnnc2C)c1 (single isomer, unassigned) [Compound 13, (R/S, S/R, R/R, S/S)-5-fluoro-N4-(octahydro-5,5-dimethylindolizin-7-yl)N2-(3-methoxy-5-(5-methyl-1H-tetrazol-1-yl)phenyl)pyrimidine-2,4-diamine] |  | < 100 nM |
| CC(O)COc1ccc(Nc2ncc(F)c(N[C@@H]3C[C@@H]4CCCN4C(C)(C)C3)n2)cc1-n1cnnn1 (stereo partly drawn) [Compound 206, 1-(4-((4-(((7R,8aS)-5,5-dimethyloctahydroindolizin-7-yl)amino)-5-fluoropyrimidin-2-yl)amino)-2-(1H-tetrazol-1-yl)phenoxy)propan-2-ol] | < 100 nM |  |
| Cn1nnn(-c2cc(Nc3ncc(F)c(NC4CCN5C(CCC5(C)C)C4)n3)c(F)cc2C2CC2)c1=O (single isomer, unassigned) [Compound 34, 1-(5-(5-fluoro-4-(octahydro-3,3-dimethylindolizin-7-ylamino)pyrimidin-2-ylamino)-2-cyclopropyl-4-fluorophenyl)-4-methyl-1H-tetrazol-5(4H)-one] | 1000 to 10000 nM |  |

Continued, values first:

| EC50 (Homo sapiens, T-cell, 24 h) | EC50 | SMILES |
| --- | --- | --- |
| 100 to 500 nM |  | COc1cc(Nc2ncc(F)c(N[C@@H]3C[C@@H]4CCCN4C(C)(C)C3)n2)c(F)c(-n2nnnc2C)c1 [Compound 241, 5-fluoro-N2-(2-fluoro-5-methoxy-3-(5-methyl-1H-tetrazol-1-yl)phenyl)-N4-((7R,8aS)-octahydro-5,5-dimethylindolizin-7-yl)pyrimidine-2,4-diamine] |
| 100 to 500 nM |  | Cn1nnn(-c2cc(Nc3ncc(F)c(N[C@@H]4C[C@@H]5CCCN5C(C)(C)C4)n3)c(F)cc2OCC(N)=O)c1=O [Compound 322, 2-(4-(4-((7R,8aS)-octahydro-5,5-dimethylindolizin-7-ylamino)-5-fluoropyrimidin-2-ylamino)-5-fluoro-2-(4,5-dihydro-4-methyl-5-oxotetrazol-1-yl)phenoxy)acetamide] |
| 1000 to 10000 nM |  | CNc1nnnn1-c1cc(Nc2ncc(F)c(N[C@@H]3C[C@@H]4CCCN4C(C)(C)C3)n2)c(F)cc1OC1COC1 [Compound 258, 5-fluoro-N2-(2-fluoro-5-(5-(methylamino)-1H-tetrazol-1-yl)-4-(oxetan-3-yloxy)phenyl)-N4-((7R,8aS)-octahydro-5,5-dimethylindolizin-7-yl)pyrimidine-2,4-diamine] |
| < 100 nM |  | CSc1nnnn1-c1cc(Nc2ncc(F)c(N[C@@H]3C[C@@H]4CCCN4C(C)(C)C3)n2)ccc1C [Compound 281, 5-fluoro-N4-((7R,8aS)-octahydro-5,5-dimethylindolizin-7-yl)-N2-(4-methyl-3-(5-(methylthio)-1H-tetrazol-1-yl)phenyl)pyrimidine-2,4-diamine] |
| 1000 to 10000 nM |  | COCCN1C(=O)C(C)(C)Oc2ccc(Nc3ncc(F)c(N[C@@H]4C[C@@H]5CCCN5C(C)(C)C4)n3)cc21 [Compound 319] |
| 100 to 500 nM |  | CC1(C)CC[C@H]2C[C@@H](Nc3nc(Nc4ccc(OCCO)c(OC(F)F)c4)ncc3F)CCN21 [Compound 303, 2-(2-(Difluoromethoxy)-4-((4-(((7S,8aS)-3,3-dimethyloctahydroindolizin-7-yl)amino)-5-fluoropyrimidin-2-yl)amino)phenoxy)ethan-1-ol] |
| 100 to 500 nM |  | CC1(C)C[C@H](Nc2nc(Nc3cccc(-n4nnn(C5COC5)c4=O)c3)ncc2F)C[C@@H]2CCCN21 [Compound 265, 1-(3-(4-((7R,8aS)-octahydro-5,5-dimethylindolizin-7-ylamino)-5-fluoropyrimidin-2-ylamino)phenyl)-4-(oxetan-3-yl)-1H-tetrazol-5(4H)-one] |
| 1000 to 10000 nM |  | CC1(C)C[C@H](Nc2nc(Nc3cccc(-n4nnnc4SC(CN)CO)c3)ncc2F)C[C@@H]2CCCN21 (stereo partly drawn) [Compound 264, 2-(1-(3-(4-((7R,8aS)-octahydro-5,5-dimethylindolizin-7-ylamino)-5-fluoropyrimidin-2-ylamino)phenyl)-1H-tetrazol-5-ylthio)-3-aminopropan-1-ol] |
